LC50 data for 13 compounds are collected here from US20240150356A1, “Pyrimidine amide compounds and use thereof” (ALPHALA CO., LTD., priority 2019, published 2024).

Read-outs that look alike come from different tables or passages of the source.

For this test, the system named is Hep3B cells (hepatocellular carcinoma cell line). Put plainly: In vitro MTS cell viability assay (NCI-60 methodology), Hep3B. It is filed as cell-based. The following applies: Homo sapiens, 48 h, 2 days drug incubation, 50% reduction vs time zero, read-out: Hep3B LC50. In short, it runs like this: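 Hep3B cells given five 2-fold dilutions of compound for 2 days, with viability by MTS measured at time zero and at end. LC50 is the concentration giving a 50% fall in viable cells relative to the start of treatment, per NCI-60 formula.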

As to `CC1(C)CCC(n2ncc3c(NC(=O)c4ccc([N+](=O)[O-])s4)nc(-c4ccc(Cl)cc4F)nc32)CC1` [Compound 10-65, N-(6-(4-chloro-2-fluorophenyl)-1-(4,4-dimethylcyclohexyl)-1H-pyrazolo[3,4-d]pyrimidin-4-yl)-5-nitrothiophene-2-carboxamide], for the setting “Table 10, MTS”, the LC50 is 580 nM.

For the compound `COc1ccc(-c2nc(NC(=O)c3ccc([N+](=O)[O-])s3)c3cnn(C4CCCCC4)c3n2)cc1OC` [Compound 10-48, N-(1-cyclohexyl-6-(3,4-dimethoxyphenyl)-1H-pyrazolo[3,4-d]pyrimidin-4-yl)-5-nitrothiophene-2-carboxamide], for the setting “Table 10, MTS”, the LC50 stood at 970 nM. Take `Cc1ccc(-n2ncc3c(NC(=O)c4ccc([N+](=O)[O-])s4)nc(-c4ccc(Cl)cc4)nc32)cc1` [Compound 6-7]: under “Table 6, MTS”, the LC50 stood at 290 nM. Take `O=C(Nc1nc(-c2ccccc2)nc2c1cnn2-c1ccccc1)c1ccc([N+](=O)[O-])s1` [Compound 5-23, N-(1,6-diphenyl-1H-pyrazolo[3,4-d]pyrimidin-4-yl)-5-nitrothiophene-2-carboxamide]: the LC50 (Table 5, MTS) amounted to 430 nM. Regarding `O=C(Nc1nc(-c2ccc(F)cc2Cl)nc2c1cnn2C1CCCCC1)c1ccc([N+](=O)[O-])s1` [Compound 10-46, N-(6-(2-chlor-4-fluorophenyl)-1-cyclohexyl-1H-pyrazolo[3,4-d]pyrimidin-4-yl)-5-nitrothiophene-2-carboxamide], the LC50 (Table 10, MTS) turned out to be 1030 nM. Turning to `CC(C)(C)n1ncc2c(-c3ccc(OC(F)(F)F)cc3)nc(NC(=O)c3ccc([N+](=O)[O-])s3)nc21` [Compound 2-4, N-(1-(tert-butyl)-4-(4-(trifluoromethoxy)phenyl)-1H-pyrazolo[3,4,d]pyrimidin-6-yl)-5-nitrothiophene-2-carboxamide], under “Table 2, MTS”, the LC50 is 3050 nM.

In the case of `O=Cc1ccc(-c2nc(NC(=O)c3ccc([N+](=O)[O-])s3)c3cnn(C4CCCCC4)c3n2)cc1` [Compound 10-27, N-(1-cyclohexyl-6-(4-formylphenyl)-1H-pyrazolo[3,4-d]pyrimidin-4-yl)-5-nitrothiophene-2-carboxamide], where the note is “Table 10, MTS”, the LC50 came out at 840 nM. For `O=C(Nc1nc(-c2ccc(C(F)(F)F)cc2)nc2c1cnn2-c1ccc(F)cc1)c1ccc([N+](=O)[O-])s1` [Compound 6-122, N-(1-(4-fluorophenyl)-6-(4-(trifluoromethyl)phenyl)-1H-pyrazolo[3,4-d]pyrimidin-4-yl)-5-nitrothiophene-2-carboxamide], where the note is “Table 6, MTS”, the LC50 is 280 nM. In the case of `O=C(Nc1nc(-c2ccc(OC(F)(F)F)cc2)nc2c1cnn2-c1ccc(F)cc1)c1ccc([N+](=O)[O-])s1` [Compound 6-123, N-(1-(4-fluorophenyl)-6-(4-(trifluoromethoxy)phenyl)-1H-pyrazolo[3,4d]pyrimidin-4-yl)-5-nitrothiophene-2-carboxamide], the LC50 (Table 6, MTS) was 340 nM. On the same count and under the same terms, the same measure for `COc1ccc(-n2ncc3c(NC(=O)c4ccc([N+](=O)[O-])s4)nc(C4=CCC(C)(C)CC4)nc32)cc1` [Compound 6-29, N-(6-(4,4-dimethylcyclohex-1-en-1-yl)-1-(4-methoxyphenyl)-1H-pyrazolo[3,4-d]pyrimidin-4-yl)-5-nitrothiophene-2-carboxamide]: 820 nM. Regarding `O=C(Nc1nc(NS(=O)(=O)c2ccc(Cl)cc2)nc2c1cnn2-c1ccccc1)c1ccc([N+](=O)[O-])s1` [Compound 5-9, N-(6-((4-chlorophenyl)sulfonamido)-1-phenyl-1H-pyrazolo[3,4-d]pyrimidin-4-yl)-5-nitrothiophene-2-carboxamide], the LC50 (Table 5, MTS) was more than 6000 nM. Turning to `O=C(Nc1nc(-c2ccc(Cl)cc2)nc2c1cnn2-c1ccc(F)cc1F)c1ccc([N+](=O)[O-])s1` [Compound 7-14], the LC50 (Table 7, MTS) stood at 580 nM. Take `O=C(Nc1nc(-c2ccc(OC(F)(F)F)cc2)nc2c1cnn2C1CCCCC1)c1ccc([N+](=O)[O-])s1` [Compound 10-26, N-(1-cyclohexyl-6-(4-(trifluoromethoxy)phenyl)-1H-pyrazolo[3,4-d]pyrimidin-4-yl)-5-nitrothiophene-2-carboxamide]: the median lethal concentration (LC50) (Table 10, MTS) came to 680 nM.
